# “Also recorded” adds a separate entry of the source.
# Assays:
# TRPV4 = system: TRPV4; parameters: method as in doi:10.1101/2020.10.13.334797; conditions: read-out: EC50 (TRPV4 agonist); cited from earlier work
# human TRPV4 [1] = target: T1, human TRPV4 (Homo sapiens, UniProt Q9HBA0); assay: FLIPRtetra calcium assay, second addition (antagonism of 500 nM GSK1016790A); format: cell-based; conditions: for Inhibitory effect / activity on hTRPV4 in vitro: natural stilbenoids, 0.05–37.5 µM concentration series; for IC50: HEK-293 cells transiently transfected with human TRPV4, 500 nM GSK1016790A, 37 °C, read-out: IC50 (inhibition of response evoked by GSK1016790A)
# T1 construct: host or cells: HEK-293 cells (ATCC), transient transfection
# T1 sequence (Q9HBA0 whole entry): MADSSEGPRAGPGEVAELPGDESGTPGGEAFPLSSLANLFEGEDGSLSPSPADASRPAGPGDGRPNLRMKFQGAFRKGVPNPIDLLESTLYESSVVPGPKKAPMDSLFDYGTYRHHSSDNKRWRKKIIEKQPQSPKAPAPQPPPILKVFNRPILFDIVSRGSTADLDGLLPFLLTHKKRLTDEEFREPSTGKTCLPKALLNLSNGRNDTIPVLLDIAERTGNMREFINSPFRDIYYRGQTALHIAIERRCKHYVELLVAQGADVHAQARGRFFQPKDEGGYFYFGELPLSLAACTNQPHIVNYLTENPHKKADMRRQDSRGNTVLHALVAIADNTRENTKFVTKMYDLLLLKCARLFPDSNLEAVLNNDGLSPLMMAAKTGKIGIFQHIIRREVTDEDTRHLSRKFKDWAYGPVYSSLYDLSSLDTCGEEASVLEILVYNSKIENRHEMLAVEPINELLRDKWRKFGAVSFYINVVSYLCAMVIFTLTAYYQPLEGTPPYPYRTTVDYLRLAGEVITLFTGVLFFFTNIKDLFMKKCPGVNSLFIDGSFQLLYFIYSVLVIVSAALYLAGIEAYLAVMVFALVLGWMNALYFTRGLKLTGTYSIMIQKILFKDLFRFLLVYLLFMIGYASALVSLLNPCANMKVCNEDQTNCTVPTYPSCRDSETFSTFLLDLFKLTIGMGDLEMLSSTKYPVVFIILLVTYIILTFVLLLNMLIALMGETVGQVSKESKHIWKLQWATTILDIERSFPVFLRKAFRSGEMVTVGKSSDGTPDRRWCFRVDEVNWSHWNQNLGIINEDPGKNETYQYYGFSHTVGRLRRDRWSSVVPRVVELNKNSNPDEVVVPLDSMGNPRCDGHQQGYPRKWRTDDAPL
# Procedure: (§1) The TRPV4 pharmacology of the hit compounds (Enamine) and the natural stilbenoids (purity > 95%, extracted at the Laboratory of Organic Chemistry at Åbo Akademi University) was studied with the fluorometric imaging plate reader FLIPR^tetra (Molecular Devices, San Jose, CA, USA) using a dual addition protocol, in which a compound’s agonism is initially measured and then, subsequently, a reference agonist is added to assess the compound’s possible antagonism. The studies were conducted in a 96-well plate format using HEK-293 cells (ATCC) that were transiently transfected with the human TRPV4 plasmid (Origene, Rockville, MD, USA, cat. SC309684). HEK cells were used as they are easy to transfect, and TRPV4 overexpressing cells provide a robust system to study TRPV4-mediated calcium responses with a wide signal window. In the experiments, the cells were loaded with a Calcium 4 Assay reagent (Molecular Devices) to enable intracellular calcium measurements. The study protocol was initiated by dispensing a concentration series (0.05–37.5 µM) of the test compounds on cells by FLIPR^tetra, and the agonism was recorded for 10 min followed by the second addition, 500 nM of the known TRPV4 agonist GSK1016790A (Sigma-Aldrich, St. Louis, […], USA, cat. G0798). The antagonism of the test compounds was measured for 2 min. All the experiments were performed at 37 °C. The excitation and emission were measured at wavelengths of 470–495 nm and 515–575 nm, respectively.
# (§2) In compound agonism and antagonism analysis, the fluorescence values were normalized by subtracting the baseline value from the maximum value of the first 10 min and of the last 2 min measured for each well, respectively. EC50 and IC50 values were determined from dose–response curves using a nonlinear regression curve fit by Prism (version 9.1.0). Dose–response curves were constructed from a mean of 3 separate wells at each compound concentration.
# human TRPV4 [2] = target: T1, human TRPV4; assay: FLIPRtetra calcium assay, first addition (agonism); format: cell-based
# Procedure: as §1, §2
compound,measurement,setting,value
CC(C)C[C@H](NC(=O)c1cc2ccccc2s1)C(=O)N1CCN(C(=O)[C@H](CO)NS(=O)(=O)c2ccc(Cl)cc2Cl)CC1 [GSK1016790A],EC50,TRPV4,0.002 µM
"COc1cc(/C=C/c2cc(O)cc(O[C@@H]3O[C@H](CO)[C@@H](O)[C@H](O)[C@H]3O)c2)ccc1O [Isorhapontin, isorhapontin]",Inhibitory effect / activity on hTRPV4 in vitro,human TRPV4 [1],inactive
"CCCCCCCCCC(=O)O[C@@H]1[C@@H](C)[C@@]2(O)[C@@H](C=C(CO)C[C@@]3(O)C(=O)C(C)=C[C@@H]23)[C@@H]2C(C)(C)[C@]12OC(=O)CCCCCCCCC [4α-PDD, 4α-phorbol 12,13-didecanoate]",EC50,TRPV4,0.2 µM
O=C(CC1C(=O)Nc2ccccc2N1C(=O)/C=C/c1ccccc1)Nc1ccc(F)cc1 (stereo not drawn) [Z1213735368],Inhibition of the response evoked by GSK1016790A,"human TRPV4 [1]; 10 µM, 500 nM GSK1016790A",inhibited the response evoked by GSK1016790A; also recorded: inhibited the response induced by GSK1016790A
same,Inhibitory effect on hTRPV4 / reversal of the effect of GSK1016790A,"human TRPV4 [1]; 30 µM (high concentration), 500 nM GSK1016790A",reverse the effect of GSK1016790A
same,IC50,human TRPV4 [1],8 µM
same,Agonistic activity on the channel,human TRPV4 [2]; 10 µM,without any agonistic activity
same,Increase in the fluorescence signal / [Ca2+] (agonism),human TRPV4 [2]; high concentration (30 µM),evoked a slow increase in the fluorescence signal; also recorded: gradually raised [Ca^2+] levels
O=C(CC(NC(=O)c1ccccc1Cl)c1ccccc1)Nc1ccc(N2CCCC2)nc1 (stereo not drawn) [Z221487176],IC50,human TRPV4 [1],> 30 µM
"OC[C@H]1O[C@@H](Oc2cc(O)cc(/C=C/c3ccc(O)c(O)c3)c2)[C@H](O)[C@@H](O)[C@@H]1O [Astringin, astringin]",Inhibitory effect / activity on hTRPV4 in vitro,human TRPV4 [1],inactive
CN1C(=O)c2ccc(NCc3nc(-c4c(F)cccc4F)cs3)cc2C1=O [Z1728742868],Inhibition of the effect of GSK1016790A,"human TRPV4 [1]; 37.5 µM (highest test concentration), 500 nM GSK1016790A",inhibited the effect of GSK1016790A; also recorded: effectively inhibited the response
same,EC50,"human TRPV4 [2]; HEK-293 cells transiently transfected with human TRPV4, 37 °C, read-out: EC50 (increase in intracellular calcium)",14 µM
